The text below walks through data of patent publication US9718835B2 (China Medical University Hospital, priority 2013, dated 2017).

The test system of data set [1] is DU-145 (hormone-insensitive prostate cancer). Briefly: Sulforhodamine B cytotoxicity assay, DU-145. Type of data set: cell-based, human. To be noted: Table 1; 72 h; average ± SD. As to the method:
The 12 novel 1-derivatives 9a-l were evaluated for in vitro antiproliferative activity against four human tumor cell lines, KB (nasopharyngeal), A-549 (lung), DU-145 (prostate), and KBvin (MDR KB subline), by using a sulforhodamine B colorimetric assay with triplicate experiments.^30 Compounds 1 and 3 were used as controls.
(§1) The human tumor cell lines used in this manuscript were A-549 (lung carcinoma), MDA-MB-231 (triple-negative breast cancer), DU-145 (hormone-insensitive prostate cancer), KB (originally isolated from epidermoid carcinoma of the nasopharynx), KBvin (vincristine-resistant KB subline), and HCT116 (colorectal adenocarcinoma). These cell lines were obtained from the Lineberger Comprehensive Cancer Center (UNC-CH) or from ATCC (Manassas, Va.), except KBvin, which was a generous gift of Professor Y.-C. Cheng (Yale University). All cell lines were maintained and assayed in RPMI-1640 medium containing 2 mM L-glutamine and 25 mM HEPES (HyClone), supplemented with 10% heat-inactivated fetal bovine serum (HyClone), 100 μg/mL streptomycin, 100 IU/mL penicillin, and 0.25 μg/mL amphotericin B (Cellgro) in a humidified atmosphere containing 5% CO2 in air. Compound stock solutions were prepared at 10 mM in DMSO and diluted with culture medium with the final DMSO concentration ≦0.01% (v/v), a concentration without effect on cell growth. The 4-6×10^3 cells/well were cultured for 72 h with various concentrations of test compounds in 96-well plate at 37° C. […] Each assay was performed in triplicate with duplicated samples.

The test system of data set [2] is A-549 cells. As to the kind of experiment: Cell cycle analysis by flow cytometry. In kind it is cell-based, human. The conditions noted are these: A-549, 24 h treatment. The text has this:
First, we determined the effect of 9a on cell cycle distribution using flow cytometry analysis. […] Because it has been shown that 1-Topo I-DNA covalent complexes enhance the transcription-dependent degradation of Topo I via a 26S proteasome pathway,^32 the effects of 9a on the expression levels of Topo I and Topo II were investigated. […] Compound 9a acts directly on Topo I and results in the accumulation of covalent Topo I-DNA complexes followed by proteasomal Topo I degradation, which is the same effect as 1 and contributes to 9a's cytotoxicity.
A-549 cells were fixed with ice-cold 70% EtOH followed by propidium iodide staining Samples were analyzed by a flow cytometer for cell cycle determination. Population of each cell cycle phase was calculated based on the ploidy (<2N as sub-G1; 2N as G1; between 2N and 4N as S; 4N as G2/M), and evaluated statistically by Student's t-test (P<0.01).

In data set [3] the test system is A-549 (lung carcinoma). Briefly: Sulforhodamine B cytotoxicity assay, A-549. In kind it is cell-based, human. To be noted: Table 1; 72 h; average ± SD.
From the text: as §1, with “Compound stock solutions were prepared at 10 mM in DMSO and diluted with culture medium with the final DMSO concentration ≦0.01% (v/v), a concentration without effect on cell growth.” left out

The test system of data set [4] is SKOV3 (Ovary cancer). Briefly: cells. The conditions noted are these: Table 6; read-out: In vitro cytotoxicity SKOV3 (Ovary cancer). In kind it is cell-based, human.
Data set [5] deals with HCT 116 (Colon cancer). As to the kind of experiment: cells. In kind it is cell-based, human. To be noted: Table 6; read-out: In vitro cytotoxicity HCT 116 (Colon cancer).
The target in data set [6] is T1, recombinant human Topoisomerase I (Homo sapiens, UniProt P11387).
T1 construct: purchased TopoGEN
T1 sequence (P11387 1-765): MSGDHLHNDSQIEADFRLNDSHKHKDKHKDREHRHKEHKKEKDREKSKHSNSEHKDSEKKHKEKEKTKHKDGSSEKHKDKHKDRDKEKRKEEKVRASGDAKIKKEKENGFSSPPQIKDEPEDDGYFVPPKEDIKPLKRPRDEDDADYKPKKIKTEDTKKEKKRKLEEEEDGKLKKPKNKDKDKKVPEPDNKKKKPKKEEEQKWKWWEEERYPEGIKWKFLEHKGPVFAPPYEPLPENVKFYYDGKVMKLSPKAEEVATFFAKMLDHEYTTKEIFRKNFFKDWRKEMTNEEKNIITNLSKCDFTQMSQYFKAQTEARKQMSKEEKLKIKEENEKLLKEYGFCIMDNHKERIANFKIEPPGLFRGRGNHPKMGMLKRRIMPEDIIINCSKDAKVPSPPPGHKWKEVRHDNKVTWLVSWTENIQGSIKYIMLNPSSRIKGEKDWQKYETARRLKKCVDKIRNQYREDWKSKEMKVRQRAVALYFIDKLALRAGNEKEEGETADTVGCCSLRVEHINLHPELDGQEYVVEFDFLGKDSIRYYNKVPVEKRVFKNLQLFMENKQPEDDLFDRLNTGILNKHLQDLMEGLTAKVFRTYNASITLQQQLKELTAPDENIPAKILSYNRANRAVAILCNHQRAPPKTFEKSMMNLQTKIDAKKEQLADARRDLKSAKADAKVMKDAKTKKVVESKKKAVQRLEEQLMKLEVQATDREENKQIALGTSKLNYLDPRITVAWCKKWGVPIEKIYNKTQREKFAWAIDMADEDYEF
Briefly: Topoisomerase I activity assay in a cell-free system. Type of data set: biochemical. The conditions noted are these: purified recombinant human Topo I. As to the method: Inhibition of Topo I activity by 9a in a cell-free system. A 1-delivative with an esterified 20-hydroxy group is expected to be activated by digestion with carboxylesterases. […] We authenticated the inhibitory effect of 9a against Topo I in a dose-dependent manner Thus, we confirmed that 9a is a new class of Topo I inhibitor.
One unit of recombinant human Topoisomerase I enzyme (TopoGEN) was pre-incubated for 20 min at 37° C. with vehicle, 9a, 1, 3, or SN-38 in a final volume of 20 μL reaction buffer (10 mM Tris-HCl, pH 7.9, 1 mM EDTA, 150 mM NaCl, 0.1% BSA, 0.1 mM spermidine, 5% glycerol) was then incubated with 250 ng of supercoiled plasmid DNA for 20 min. The supercoiled, relaxed, or nicked DNA was separated by 1% agarose gel in 1×TAE (Tris-Acetate-EDTA) buffer. Ethidium bromide stained agarose gel was photographed using Gel Doc XR (Bio-Rad).

Each structure is given as a SMILES string.

Consider `CC[C@@]1(OC(=O)CNC(Cc2ccc(OC)cc2)=NS(=O)(=O)c2ccc(C)cc2)C(=O)OCc2c1cc1n(c2=O)Cc2cc3ccccc3nc2-1` [Compound 9a], for which the IC50 in data set [1] came to 50 ± 3.8 nM; in data set [3], 31 ± 3.5 nM; in data set [4] it was 17.1 ± 2.27 nM; in data set [5] it was 46.1 ± 1.74 nM. Also, the cell cycle distribution entry in data set [2] is “increased cell populations in S and sub-G1 phases”. Moreover, the “Inhibition of Topo I activity (relaxation/nicking of supercoiled plasmid DNA)” value in data set [6] is given as “inhibited Topo I activity”.
